Source: patent US20220380431A1, “GLYCOPEPTIDE ANALOGS OF SECRETIN FAMILY PEPTIDES” (ARIZONA BOARD OF REGENTS ON BEHALF OF THE UNIVERSITY OF …, priority 2017, published 2022)
Where a SMILES comes first, the peptide text is derived from it. [ ]: non-standard residue; d: D form. The star is where a group is joined. βGlc = OC[C@H]1O[C@@H](*)[C@H](O)[C@@H](O)[C@@H]1O; Nva = CCC[C@H](N)C(=O)O

Legend:
Type in all cases: cell-based
[1] = molecular target: T1, VPAC2 (Homo sapiens, UniProt P41587); assay: Assay of peptides at PAC and VPAC receptors: VPAC2 (EC50/EMax)
T1 sequence (P41587 24-438): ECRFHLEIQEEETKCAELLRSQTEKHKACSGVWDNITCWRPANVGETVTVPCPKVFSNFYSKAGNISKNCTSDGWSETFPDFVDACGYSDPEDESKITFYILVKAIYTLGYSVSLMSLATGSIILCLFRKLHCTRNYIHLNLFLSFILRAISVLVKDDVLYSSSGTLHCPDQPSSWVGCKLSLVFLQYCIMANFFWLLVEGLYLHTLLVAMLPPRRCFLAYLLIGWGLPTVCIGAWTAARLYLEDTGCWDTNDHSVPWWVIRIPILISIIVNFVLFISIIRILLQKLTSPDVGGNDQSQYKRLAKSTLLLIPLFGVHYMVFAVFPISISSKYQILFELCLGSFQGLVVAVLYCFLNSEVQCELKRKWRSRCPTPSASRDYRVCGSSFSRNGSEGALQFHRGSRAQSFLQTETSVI

[2] = molecular target: T2, PAC1 (Homo sapiens, UniProt P41586); assay: Assay of peptides at PAC and VPAC receptors: PAC1 (EC50/EMax)
T2 sequence (P41586 21-468): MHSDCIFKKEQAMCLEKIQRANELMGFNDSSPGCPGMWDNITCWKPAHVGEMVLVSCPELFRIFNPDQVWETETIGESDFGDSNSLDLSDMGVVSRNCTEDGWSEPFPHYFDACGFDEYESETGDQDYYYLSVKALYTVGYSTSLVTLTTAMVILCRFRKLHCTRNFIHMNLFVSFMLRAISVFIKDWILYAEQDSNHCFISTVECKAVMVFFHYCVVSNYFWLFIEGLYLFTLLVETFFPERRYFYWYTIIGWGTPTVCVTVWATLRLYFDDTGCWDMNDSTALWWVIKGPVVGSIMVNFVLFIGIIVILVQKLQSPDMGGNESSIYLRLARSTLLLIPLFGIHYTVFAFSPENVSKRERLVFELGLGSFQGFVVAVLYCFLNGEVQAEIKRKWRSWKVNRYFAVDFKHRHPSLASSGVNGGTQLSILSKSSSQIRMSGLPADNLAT

[3] = molecular target: T3, VPAC1 (Homo sapiens, UniProt P32241); assay: Assay of peptides at PAC and VPAC receptors: VPAC1 (EC50/EMax)
T3 sequence (P32241 31-457): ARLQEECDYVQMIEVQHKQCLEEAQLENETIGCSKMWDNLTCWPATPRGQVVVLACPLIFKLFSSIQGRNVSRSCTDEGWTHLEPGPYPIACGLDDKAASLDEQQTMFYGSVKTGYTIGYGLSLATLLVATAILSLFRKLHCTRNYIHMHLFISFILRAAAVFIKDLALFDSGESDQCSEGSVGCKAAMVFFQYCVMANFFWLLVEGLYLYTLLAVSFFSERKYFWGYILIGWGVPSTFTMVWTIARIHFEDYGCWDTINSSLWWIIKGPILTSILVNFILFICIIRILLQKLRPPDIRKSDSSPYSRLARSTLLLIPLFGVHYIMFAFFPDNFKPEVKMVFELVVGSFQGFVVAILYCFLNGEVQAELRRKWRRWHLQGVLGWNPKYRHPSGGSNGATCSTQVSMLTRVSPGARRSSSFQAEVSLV

Row | Emax [1] | Emax [2] | EC50 [3] | EC50 [1] | VPAC2 EMax [1] | EC50 [2] | PAC1 EMax [2] | VPAC1 EMax [3] | Compound | Emax [3]
1 | -95% | -79% |  |  |  |  |  |  | CCC[C@H](NC(=O)[C@H](CCC(N)=O)NC(=O)[C@H](CCCCN)NC(=O)[C@H](CCCNC(=N)N)NC(=O)[C@H](Cc1ccc(O)cc1)NC(=O)[C@H](CCCNC(=N)N)NC(=O)[C@H](CO)NC(=O)[C@H](Cc1ccc(O)cc1)NC(=O)[C@H](CO)NC(=O)[C@H](CC(=O)O)NC(=O)[C@@H](NC(=O)[C@H](Cc1ccccc1)NC(=O)[C@@H](NC(=O)CNC(=O)[C@H](CC(=O)O)NC(=O)[C@@H](CO)NC(=O)[C@@H](N)Cc1c[nH]cn1)[C@@H](C)CC)[C@@H](C)O)C(=O)N[C@@H](C)C(=O)N[C@H](C(=O)N[C@@H](CCCCN)C(=O)N[C@@H](CCCCN)C(=O)N[C@@H](Cc1ccc(O)cc1)C(=O)N[C@@H](CC(C)C)C(=O)N[C@@H](C)C(=O)N[C@@H](C)C(=O)N[C@@H](CC(C)C)C(=O)N[C@@H](CO[C@@H]1O[C@H](CO)[C@@H](O)[C@H](O)[C@H]1O)C(=O)N[C@@H](CC(C)C)C(N)=O)C(C)C [CRA3002] (H-H[dS]DGIFTDSYSRYRKQ[Nva]AVKKYLAALS(βGlc)L-NH2) | 93%
2 |  |  |  |  |  |  |  |  | CCC[C@H](NC(=O)[C@H](CCC(N)=O)NC(=O)[C@H](CCCCN)NC(=O)[C@H](CCCNC(=N)N)NC(=O)[C@H](Cc1ccc(O)cc1)NC(=O)[C@H](CCCNC(=N)N)NC(=O)[C@H](CO)NC(=O)[C@H](Cc1ccc(O)cc1)NC(=O)[C@H](CO)NC(=O)[C@H](CC(=O)O)NC(=O)[C@H](C)NC(=O)[C@H](Cc1ccccc1)NC(=O)[C@@H](NC(=O)CNC(=O)[C@H](CC(=O)O)NC(=O)[C@@H](CO)NC(=O)[C@@H](N)Cc1c[nH]cn1)[C@@H](C)CC)C(=O)N[C@@H](C)C(=O)N[C@H](C(=O)N[C@@H](CCCCN)C(=O)N[C@@H](CCCCN)C(=O)N[C@@H](Cc1ccc(O)cc1)C(=O)N[C@@H](CC(C)C)C(=O)N[C@@H](C)C(=O)N[C@@H](C)C(=O)N[C@H](C(=O)N[C@@H](CO[C@@H]1O[C@H](CO)[C@@H](O)[C@H](O)[C@H]1O)C(=O)N[C@@H](CC(C)C)C(N)=O)C(C)C)C(C)C [CRA3005] (H-H[dS]DGIFADSYSRYRKQ[Nva]AVKKYLAAVS(βGlc)L-NH2) | 78%
3 |  |  | 0.52 nM | 55.6 nM | 91% | 0.84 nM | 92% | 93% | HSDGIFTDSYSRYRKQLAVKKYLAAVd8L-Ser(Cell) [2ls98Cell] | 
4 |  |  | 0.45 nM | 193 nM | 100% | 0.72 nM | 93% | 101% | HSDGIFTDSYSRYRKQLAVd8KKYLAAVd8L-Ser(Lact) [2ls98Lact] | 

Row | Compound | Emax [1] | Emax [2] | EC50 [3] | EC50 [1] | VPAC2 EMax [1] | EC50 [2] | PAC1 EMax [2] | VPAC1 EMax [3] | Emax [3]
5 | CCC[C@H](NC(=O)[C@H](CCC(N)=O)NC(=O)[C@H](CCCCN)NC(=O)[C@H](CCCNC(=N)N)NC(=O)[C@H](Cc1ccc(O)cc1)NC(=O)[C@H](CCCNC(=N)N)NC(=O)[C@H](CO)NC(=O)[C@H](Cc1ccc(O)cc1)NC(=O)[C@H](CO)NC(=O)[C@H](CC(=O)O)NC(=O)[C@H](C)NC(=O)[C@H](Cc1ccccc1)NC(=O)[C@@H](NC(=O)CNC(=O)[C@H](CC(=O)O)NC(=O)[C@@H](CO)NC(=O)[C@@H](N)Cc1c[nH]cn1)[C@@H](C)CC)C(=O)N[C@@H](C)C(=O)N[C@H](C(=O)N[C@@H](CCCCN)C(=O)N[C@@H](CCCCN)C(=O)N[C@@H](Cc1ccc(O)cc1)C(=O)N[C@@H](CC(C)C)C(=O)N[C@@H](C)C(=O)N[C@@H](C)C(=O)N[C@H](C(=O)N[C@@H](CO[C@@H]1O[C@H](CO)[C@@H](O)[C@H](O)[C@H]1O)C(N)=O)C(C)C)C(C)C [CRA3004] (H-H[dS]DGIFADSYSRYRKQ[Nva]AVKKYLAAVS(βGlc)-NH2) |  |  | 1370 nM |  |  |  |  |  | 85%
